According to BindingDB's records for doi:10.1016/j.chembiol.2011.11.010 (Harvard Medical School, 2012):

Assays:
Experiment in all cases: JNK Kinase Assay
[1] = target: Mitogen-activated protein kinase 10 (Homo sapiens, UniProt P53779)
Source text: (§1) The binding results were confirmed by measuring IC50 for the inhibition of JNK kinase activity by using Z'-LYTE assay format.

[2] = target: Mitogen-activated protein kinase 9 (Homo sapiens, UniProt P45984)
Source text: as §1

[3] = target: Mitogen-activated protein kinase 8 (Homo sapiens, UniProt P45983)
Sequence of Mitogen-activated protein kinase 8 (P45983 whole entry): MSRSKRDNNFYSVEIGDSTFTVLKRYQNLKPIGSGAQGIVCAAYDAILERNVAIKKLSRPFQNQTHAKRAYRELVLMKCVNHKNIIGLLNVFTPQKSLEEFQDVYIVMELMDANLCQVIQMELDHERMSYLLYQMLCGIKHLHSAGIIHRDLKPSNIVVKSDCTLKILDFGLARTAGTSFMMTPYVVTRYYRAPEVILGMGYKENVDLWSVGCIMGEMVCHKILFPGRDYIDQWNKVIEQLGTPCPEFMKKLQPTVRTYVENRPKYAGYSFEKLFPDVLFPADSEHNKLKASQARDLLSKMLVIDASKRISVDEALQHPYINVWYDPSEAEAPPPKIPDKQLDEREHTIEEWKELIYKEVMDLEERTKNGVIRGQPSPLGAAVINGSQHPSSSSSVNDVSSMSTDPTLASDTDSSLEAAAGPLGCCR
Source text: as §1

Sequence of Mitogen-activated protein kinase 9 (P45984 whole entry): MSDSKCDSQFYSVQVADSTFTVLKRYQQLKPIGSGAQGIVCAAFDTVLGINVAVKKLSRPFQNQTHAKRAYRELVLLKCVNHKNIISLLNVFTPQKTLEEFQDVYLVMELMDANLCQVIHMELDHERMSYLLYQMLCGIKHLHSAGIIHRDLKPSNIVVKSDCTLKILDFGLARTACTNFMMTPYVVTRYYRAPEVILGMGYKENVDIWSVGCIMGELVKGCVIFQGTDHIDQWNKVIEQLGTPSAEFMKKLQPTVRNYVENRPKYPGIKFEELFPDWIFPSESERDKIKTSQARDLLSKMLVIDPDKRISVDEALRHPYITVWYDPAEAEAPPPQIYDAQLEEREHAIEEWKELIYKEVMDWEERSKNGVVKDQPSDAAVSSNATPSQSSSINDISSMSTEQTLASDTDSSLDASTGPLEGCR
Sequence of Mitogen-activated protein kinase 10 (P53779 whole entry): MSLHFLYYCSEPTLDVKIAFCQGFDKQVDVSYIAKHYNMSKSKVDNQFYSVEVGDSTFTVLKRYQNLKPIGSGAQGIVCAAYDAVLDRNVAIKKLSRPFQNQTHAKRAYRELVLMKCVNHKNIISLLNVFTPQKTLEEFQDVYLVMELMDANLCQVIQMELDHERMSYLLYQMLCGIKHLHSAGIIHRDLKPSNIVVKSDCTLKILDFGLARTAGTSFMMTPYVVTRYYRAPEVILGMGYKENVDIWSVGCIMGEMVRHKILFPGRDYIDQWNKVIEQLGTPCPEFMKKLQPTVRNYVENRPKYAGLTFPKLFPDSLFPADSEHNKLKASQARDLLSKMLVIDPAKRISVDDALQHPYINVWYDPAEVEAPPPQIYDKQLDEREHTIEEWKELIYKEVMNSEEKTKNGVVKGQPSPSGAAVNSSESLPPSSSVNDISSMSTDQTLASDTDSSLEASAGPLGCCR

| IC50 [1] [µM] | IC50 [2] [µM] | IC50 [3] [µM] | SMILES |
| --- | --- | --- | --- |
| 0.011 | 0.0113 | 0.013 | CN(C)C/C=C/C(=O)Nc1cccc(C(=O)Nc2ccc(Nc3nccc(C(C#N)c4nc5ccccc5s4)n3)cc2)c1 (configuration not stated) [JNK-IN-12] |
| 7.22 | 5.46 | 2.39 | CN(C)C/C=C/C(=O)NCc1ccc(C(=O)Nc2cccc(Nc3nccc(-c4cccnc4)n3)c2)cc1 [JNK-IN-4] |
| > 10 | > 10 | > 10 | CN(C)C/C=C/C(=O)Nc1ccc(C(=O)Nc2cccc(Oc3nccc(-c4cccnc4)n3)c2)cc1 [JNK-IN-3] |
| – | 0.22 | 0.15 | N#CC(c1ccnc(NCCc2cccnc2)n1)c1nc2ccccc2s1 (configuration not stated) [[3H-Benzothiazol-(2Z)-ylidene]-[2-(2-pyridin-3-yl-ethylamino)-pyrimidin-4-yl]-acetonitrile] |
| 0.19 | – | – | O=C1c2ccccc2-c2n[nH]c3cccc1c23 |
| – | 1.14 | 0.809 | CN(C)C/C=C/C(=O)Nc1ccc(C(=O)Nc2cccc(Nc3nccc(-c4cccnc4)n3)c2)cc1 [JNK-IN-2] |

| SMILES | IC50 [1] [µM] | IC50 [2] [µM] | IC50 [3] [µM] |
| --- | --- | --- | --- |
| Cc1ccc(NC(=O)c2ccc(NC(=O)/C=C/CN(C)C)cc2)cc1Nc1nccc(-c2cccnc2)n1 [JNK-IN-1] | 7.75 | 4.23 | 7.78 |
